One test addresses T1, GST-JAK2(808-1132) (Homo sapiens, UniProt O60674).
T1 construct: GST-JAK2(808-1132); purchased Invitrogen (Carlsbad, USA) #4288
As to the kind of experiment: JAK2 kinase assay (Caliper mobility shift, LabChip 3000). The format is biochemical. The gist of the method:
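Recombinant GST-JAK2(808-1132) kinase domain with FITC-labelled JAK3tide peptide substrate and ATP; 60 min at 30 °C, EDTA stop. Substrate/product ratio read by microfluidic mobility shift; compounds at 8 final concentrations, 10 to 0.003 μM.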

Test [1] deals with JAK1/JAK2-dependent nuclear translocation of STAT1-GFP in HT1080 fibrosarcoma cells. Briefly: STAT1 nuclear translocation assay (Cellomics), IFN-γ stimulated HT1080 STAT1-GFP cells. The test is classed as cell-based. Particulars: Homo sapiens, HT-1080, STAT1 translocation pathway. A digest of the protocol: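 HT1080 cells stably expressing STAT1-GFP, pre-treated 30 min with compound (10 μM–0.003 μM, 0.1% DMSO), then stimulated 2 h with 100 ng/ml IFN-γ, fixed and Hoechst-stained. Nuclear-cytoplasmic GFP differential imaged over ≥1000 cells/well, normalised to unstimulated and DMSO-stimulated wells for IC50.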

T1 sequence (O60674 808-1132): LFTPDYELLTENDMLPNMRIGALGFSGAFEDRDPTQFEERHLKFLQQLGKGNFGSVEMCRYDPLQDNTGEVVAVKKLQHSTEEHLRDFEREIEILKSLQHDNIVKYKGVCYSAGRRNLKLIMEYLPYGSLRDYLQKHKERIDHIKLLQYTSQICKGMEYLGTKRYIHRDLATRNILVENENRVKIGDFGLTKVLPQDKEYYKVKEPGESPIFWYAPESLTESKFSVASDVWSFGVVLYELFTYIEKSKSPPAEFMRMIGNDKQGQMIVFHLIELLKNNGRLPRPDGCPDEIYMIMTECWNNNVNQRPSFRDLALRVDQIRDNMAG

For orientation: IC50 means the concentration that gives 50% inhibition. Turning to `Cc1ccc(Nc2ncc3ccn(-c4cc(F)c(CN5CCNC(=O)C5)c(F)c4)c3n2)cc1C` [Example 312, 4-{4-[2-(3,4-Dimethyl-phenylamino)-pyrrolo[2,3-d]pyrimidin-7-yl]-2,6-difluoro-benzyl}-piperazin-2-one], the IC50 on GST-JAK2(808-1132) amounted to 13 nM; in test [1], 565 nM.

For the compound `COc1cc(Nc2ncc3cc(C)n(-c4ccc(CC(=O)N5CCN(C)CC5)cc4)c3n2)ccc1F` [Example 162, 2-{4-[2-(4-Fluoro-3-methoxy-phenylamino)-6-methyl-pyrrolo[2,3-d]pyrimidin-7-yl]-phenyl}-1-(4-methyl-piperazin-1-yl)-ethanone], the IC50 was 305 nM on GST-JAK2(808-1132) and 9700 nM in test [1].

Consider `CCN1CCN(Cc2ccc(-n3ccc4cnc(Nc5ccc(C)c(Cl)c5)nc43)cc2F)CC1` [Example 120, (3-Chloro-4-methyl-phenyl)-{7-[4-(4-ethyl-piperazin-1-ylmethyl)-3-fluoro-phenyl]-7H-pyrrolo[2,3-d]pyrimidin-2-yl}-amine], for which the IC50 was found to be 155 nM at GST-JAK2(808-1132) and 7850 nM in test [1].

In the case of `COc1cc(Nc2ncc3ccn(-c4ccc(C(=O)N5CCN(C)CC5)c(F)c4)c3n2)ccc1F` [Example 154, {2-Fluoro-4-[2-(4-fluoro-3-methoxy-phenylamino)-pyrrolo[2,3-d]pyrimidin-7-yl]-phenyl}-(4-methyl-piperazin-1-yl)-methanone], the 50% inhibitory concentration (IC50) on GST-JAK2(808-1132) was determined as 250 nM; in test [1] it was 6440 nM.

As to `CCOc1ccc(Nc2ncc3ccn(-c4ccc(CN5CCOCC5)c(Cl)c4)c3n2)cc1OCC` [Example 177, [7-(3-Chloro-4-morpholin-4-ylmethyl-phenyl)-7H-pyrrolo[2,3-d]pyrimidin-2-yl]-(3,4-diethoxy-phenyl)-amine], the IC50 at GST-JAK2(808-1132) was determined as 5.3 nM; in test [1] it was 1040 nM.

For the compound `COc1cc(Nc2ncc3ccn(-c4cc(F)c(CN5CCOCC5)c(F)c4)c3n2)ccc1C` [Example 307, [7-(3,5-Difluoro-4-morpholin-4-ylmethyl-phenyl)-7H-pyrrolo[2,3-d]pyrimidin-2-yl]-(3-methoxy-4-methyl-phenyl)-amine], the IC50 is 14 nM at GST-JAK2(808-1132) and 120 nM in test [1].

With `CC(C)Oc1ccc(Nc2ncc3ccn(-c4ccc(C(=O)N5CCN(C)CC5)c(F)c4)c3n2)cc1` [Example 85, {2-Fluoro-4-[2-(4-isopropoxy-phenylamino)-pyrrolo[2,3-d]pyrimidin-7-yl]-phenyl}-(4-methyl-piperazin-1-yl)-methanone], the IC50 on GST-JAK2(808-1132) came out at 3.8 nM; in test [1], 3500 nM.

On to `O=S1(=O)CCN(Cc2c(F)cc(-n3ccc4cnc(Nc5ccccc5)nc43)cc2F)CC1` [Example 180, {7-[4-(1,1-Dioxido-thiomorpholin-4-ylmethyl)-3,5-difluoro-phenyl]-7H-pyrrolo[2,3-d]pyrimidin-2-yl}-phenyl-amine], for which the figures for the IC50 (on GST-JAK2(808-1132); in test [1]) were < 3 nM and 120 nM, respectively.

Take `CN1CCN(C(=O)c2c(F)cc(-n3ccc4cnc(Nc5ccc(CN6CCS(=O)(=O)CC6)cc5)nc43)cc2F)CC1` [Example 190, (4-{2-[4-(1,1-Dioxido-thiomorpholin-4-ylmethyl)-phenylamino]-pyrrolo[2,3-d]pyrimidin-7-yl}-2,6-difluoro-phenyl)-(4-methyl-piperazin-1-yl)-methanone]: the IC50 at GST-JAK2(808-1132) was found to be 5.2 nM; in test [1], 439 nM.

Regarding `COCc1ccc(Nc2ncc3ccn(-c4ccc(S(C)(=O)=O)cc4)c3n2)cc1` [Example 54, [7-(4-Methanesulfonyl-phenyl)-7H-pyrrolo[2,3-d]pyrimidin-2-yl]-(4-methoxymethyl-phenyl)-amine], the IC50 at GST-JAK2(808-1132) is 4.4 nM; in test [1], 3110 nM.

Consider `COCc1ccc(Nc2ncc3ccn(-c4cc(F)c(C(=O)N5CCN(C)CC5)c(F)c4)c3n2)cc1` [Example 189, {2,6-Difluoro-4-[2-(4-methoxymethyl-phenylamino)-pyrrolo[2,3-d]pyrimidin-7-yl]-phenyl}-(4-methyl-piperazin-1-yl)-methanone], for which the IC50 turned out to be 9.5 nM at GST-JAK2(808-1132) and 846 nM in test [1].

Take `CC(C)Oc1ccc(Nc2ncc3ccn(-c4ccc(CC(=O)N5CCOCC5)cc4)c3n2)cc1` [Example 102, 2-{4-[2-(4-Isopropoxy-phenylamino)-pyrrolo[2,3-d]pyrimidin-7-yl]-phenyl}-1-morpholin-4-yl-ethanone]: the IC50 at GST-JAK2(808-1132) was < 3 nM; in test [1] it was 275 nM.

As for `O=C(c1c(F)cc(-n2ccc3cnc(Nc4ccc(N5CCNCC5)nc4)nc32)cc1F)N1CCOCC1` [Example 262, {2,6-Difluoro-4-[2-(6-piperazin-1-yl-pyridin-3-ylamino)-pyrrolo[2,3-d]pyrimidin-7-yl]-phenyl}-morpholin-4-yl-methanone], the figures for the IC50 (at GST-JAK2(808-1132); in test [1]) were 4.2 nM and 285 nM, respectively.

`C[C@@H]1CN(Cc2ccc(Nc3ncc4ccn(-c5cc(F)c(C(=O)N6CCOCC6)c(F)c5)c4n3)cc2)[C@@H](C)CN1` (racemic) [Example 261, (4-{2-[4-((2S,5R)-2,5-Dimethyl-piperazin-1-ylmethyl)-phenylamino]-pyrrolo[2,3-d]pyrimidin-7-yl}-2,6-difluoro-phenyl)-morpholin-4-yl-methanone]: the values for the IC50 (on GST-JAK2(808-1132); in test [1]) were 12 nM and 180 nM, respectively.

In the case of `C[C@@H]1CN[C@@H](C)CN1c1ccc(Nc2ncc3ccn(-c4ccc(S(C)(=O)=O)cc4)c3n2)cn1` (racemic) [Example 274, [6-((2R,5S)-2,5-Dimethyl-piperazin-1-yl)-pyridin-3-yl]-[7-(4-methanesulfonyl-phenyl)-7H-pyrrolo[2,3-d]pyrimidin-2-yl]-amine], the IC50 at GST-JAK2(808-1132) was determined as 7.2 nM; in test [1] it was 520 nM.

Consider `CN1CCN(c2cccc(Nc3ncc4ccn(-c5ccc(S(C)(=O)=O)cc5)c4n3)c2)CC1` [Example 17, [7-(4-Methanesulfonyl-phenyl)-7H-pyrrolo[2,3-d]pyrimidin-2-yl]-[3-(4-methyl-piperazin-1-yl)-phenyl]-amine], for which the IC50 was < 3 nM on GST-JAK2(808-1132) and 20.5 nM in test [1].

`CN1CCN(C(=O)c2cccc(Nc3ncc4ccn(-c5ccc(S(C)(=O)=O)cc5)c4n3)c2)CC1` [Example 39, {3-[7-(4-Methanesulfonyl-phenyl)-7H-pyrrolo[2,3-d]pyrimidin-2-ylamino]-phenyl}-(4-methyl-piperazin-1-yl)-methanone]: the IC50 turned out to be 14 nM on GST-JAK2(808-1132) and 1370 nM in test [1].

Turning to `Cn1cc(Nc2ncc3ccn(-c4cc(F)c(C(=O)N5CCOCC5)c(F)c4)c3n2)cn1` [Example 241, {2,6-Difluoro-4-[2-(1-methyl-1H-pyrazol-4-ylamino)-pyrrolo[2,3-d]pyrimidin-7-yl]-phenyl}-morpholin-4-yl-methanone], the IC50 is 5.4 nM at GST-JAK2(808-1132) and 370 nM in test [1].

On to `Fc1cc(-n2ccc3cnc(Nc4ccc(N5CCNC6(CC6)C5)nc4)nc32)cc(F)c1CN1CCOCC1` [Example 270, [6-(4,7-Diaza-spiro[2.5]oct-7-yl)-pyridin-3-yl]-[7-(3,5-difluoro-4-morpholin-4-ylmethyl-phenyl)-7H-pyrrolo[2,3-d]pyrimidin-2-yl]-amine], for which the IC50 at GST-JAK2(808-1132) stood at 4.3 nM; in test [1], 35 nM.

As for `CCN1CCN(Cc2ccc(Nc3ncc4ccn(-c5cc(F)c(CN6CCOCC6)c(F)c5)c4n3)cc2)CC1` [Example 196, [7-(3,5-Difluoro-4-morpholin-4-ylmethyl-phenyl)-7H-pyrrolo[2,3-d]pyrimidin-2-yl]-[4-(4-ethyl-piperazin-1-ylmethyl)-phenyl]-amine], the IC50 was < 3 nM at GST-JAK2(808-1132) and 176 nM in test [1].

As for `COc1cc(Nc2ncc3ccn(-c4cc(F)c(CN5CCS(=O)(=O)CC5)c(F)c4)c3n2)ccc1C` [Example 308, {7-[4-(1,1-Dioxido-thiomorpholin-4-ylmethyl)-3,5-difluoro-phenyl]-7H-pyrrolo[2,3-d]pyrimidin-2-yl}-(3-methoxy-4-methyl-phenyl)-amine], the IC50 is < 3 nM on GST-JAK2(808-1132) and 15 nM in test [1].

On to `CN1CCN(C(=O)c2c(F)cc(-n3ccc4cnc(Nc5ccc(CN6CCOCC6)cc5)nc43)cc2F)CC1` [Example 192, {2,6-Difluoro-4-[2-(4-morpholin-4-ylmethyl-phenylamino)-pyrrolo[2,3-d]pyrimidin-7-yl]-phenyl}-(4-methyl-piperazin-1-yl)-methanone], for which the IC50 at GST-JAK2(808-1132) is 11.5 nM; in test [1], 1490 nM.

`C[C@@H]1CN(Cc2ccc(Nc3ncc4ccn(-c5cc(F)c(C(=O)N6CCOCC6)c(F)c5)c4n3)cc2)C[C@H](C)N1` [Example 255, (4-{2-[4-(cis-3,5-Dimethyl-piperazin-1-ylmethyl)-phenylamino]-pyrrolo[2,3-d]pyrimidin-7-yl}-2,6-difluoro-phenyl)-morpholin-4-yl-methanone]: the IC50 on GST-JAK2(808-1132) is 6.9 nM; in test [1], 115 nM.

Turning to `O=S1(=O)CCN(Cc2c(F)cc(-n3ccc4cnc(Nc5cccnc5)nc43)cc2F)CC1` [Example 182, {7-[4-(1,1-Dioxido-thiomorpholin-4-ylmethyl)-3,5-difluoro-phenyl]-7H-pyrrolo[2,3-d]pyrimidin-2-yl}-pyridin-3-yl-amine], the IC50 at GST-JAK2(808-1132) was < 3 nM; in test [1], 125 nM.

In the case of `Cc1ccc(Nc2ncc3ccn(-c4ccc(CN5CCS(=O)(=O)CC5)c(F)c4)c3n2)cc1Cl` [Example 121, (3-Chloro-4-methyl-phenyl)-{7-[4-(1,1-dioxido-thiomorpholin-4-ylmethyl)-3-fluoro-phenyl]-7H-pyrrolo[2,3-d]pyrimidin-2-yl}-amine], the IC50 at GST-JAK2(808-1132) was determined as 15.5 nM; in test [1] it was 152 nM.

These data come from patent publication US8420657B2 (Novartis AG, priority 2008, dated 2013).
